The values below come from PubChem BioAssay (NCI).

Values joined by “and” are separate entries in the source; they are usually repeats but may differ in a detail not shown here. Equal entries are not always repeated.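 Briefly, cells in 96-well plates were exposed to five compound concentrations for 48 h, and endpoints were estimated by linear interpolation. At the GI50, growth is halved. At the TGI there is no net growth.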

Holding throughout (test): NCI-60 cell line screen, 48 h
The subject of assay [1] is NCI/ADR-RES ovarian.
The subject of assay [2] is OVCAR-5 ovarian.
Assay [3] relates to HT29 colon.
The subject of assay [4] is MOLT-4 leukemia.
Assay [5] deals with LOX IMVI melanoma.
Assay [6] concerns SF-295 CNS.
Assay [7] relates to BT-549 breast.
For assay [8], the system named is HCT-116 colon.

On to `COc1ccc(/C=C/C(=O)c2ccc(SC)cc2)cc1OC`, for which the GI50 in assay [1] was 10.9 µM; in assay [2], 16.4 µM; in assay [3], 4.57 µM; in assay [4], 22.4 µM; in assay [5], 4.12 µM; in assay [6], 6.47 µM. Also, the GI50 in assay [7] is 2.86 µM; in assay [8], 2.65 µM. The TGI in assay [1] was 27.3 µM; in assay [2], 31.7 µM; in assay [3], 87.5 µM; in assay [4] it was greater than 100 µM; in assay [5], 15.5 µM; in assay [6], 40.2 µM. For the same molecule, the TGI is 6.66 µM in assay [7] and 10.1 µM in assay [8].
Turning to `C#CCC(Cc1cnc2nc(N)nc(N)c2n1)c1ccc(C(=O)N[C@@H](CCC(=O)O)C(=O)O)cc1` (stereo partly drawn), the GI50 in assay [1], in assay [2], in assay [3], in assay [4], in assay [5] and in assay [6] was less than 0.01 µM throughout. For the same molecule, the results for the GI50 in assay [7] and in assay [8] were greater than 100 µM and less than 0.01 µM, respectively. The TGI in assay [1], in assay [2], in assay [3], in assay [4], in assay [5] and in assay [6] was greater than 100 µM throughout. Also, the TGI in assay [7] and in assay [8] was greater than 100 µM in each case.
On to `CC(C)(C)c1nn(-c2ccccc2)c2c1C(=O)CSC(c1ccccc1Cl)N2` (stereo not drawn), for which the GI50 was 0.632 µM in assay [1]; 3.18 µM in assay [2]; 1.97 µM in assay [3]; 3.42 µM in assay [4]; 2.74 µM in assay [5]; 0.746 µM in assay [6]. Moreover, the GI50 was 2.91 µM in assay [7] and 1.9 µM in assay [8]. For the same molecule, the TGI was 7.54 µM in assay [1]; 13.1 µM in assay [2]; 6.55 µM in assay [3]; 16.5 µM in assay [4]; 15.7 µM in assay [5]; 10.5 µM in assay [6]. Moreover, the results for the TGI in assay [7] and in assay [8] were 12.9 µM and 12 µM, respectively.
In the case of `Cn1c(/C=C(\C#N)c2ccccc2)nc2c(N3CCOCC3)nc(Cl)nc21`, the GI50 in assay [1] was 1.98 µM; in assay [2] it was 1.42 µM; in assay [3] it was 0.386 µM; in assay [4], 0.669 µM; in assay [5] it was 0.324 µM; in assay [6], 1.98 µM. In addition, the figures for the GI50 in assay [7] and in assay [8] were 0.711 µM and 0.178 µM, respectively. The TGI in assay [1] was 7.23 µM; in assay [2] it was 2.99 µM; in assay [3] it was 1.47 µM; in assay [4], 3.12 µM; in assay [5], 1.25 µM; in assay [6], 4.32 µM. The TGI in assay [7] came to 2.07 µM; in assay [8] it was 0.432 µM.
On to `O=c1nc2n(-c3ccc(Cl)cc3)c3ccc([N+](=O)[O-])cc3cc-2c(=O)[nH]1`, for which the GI50 in assay [1] was 49.6 µM; in assay [2], 28.8 µM; in assay [3] it was 20.2 µM; in assay [4] it was 13.4 µM; in assay [5], 4.87 µM; in assay [6], 19.8 µM. Besides, the GI50 was 13.6 µM in assay [7] and 16.1 µM in assay [8]. Moreover, the TGI in assay [1] is greater than 100 µM; in assay [2], 73.8 µM; in assay [3], 43.1 µM; in assay [4], greater than 100 µM; in assay [5], 21.7 µM; in assay [6], 47.1 µM. Further, the TGI turned out to be 46.2 µM in assay [7] and 33.2 µM in assay [8].
For the molecule `CC1=C2C[C@H]3[C@@H](CC[C@@H]4CC(NS(C)(=O)=O)CC[C@@]43C)[C@@H]2CC[C@@]2(C1)O[C@@H]1C[C@H](C)CN[C@H]1[C@H]2C` (stereo partly drawn), the GI50 in assay [1] is 12.2 µM; in assay [2] it was 13.7 µM; in assay [3] it was 3.5 µM; in assay [4] it was 5.5 µM; in assay [5], 5.48 µM; in assay [6] it was 12.5 µM. Also, the GI50 in assay [7] is 12 µM; in assay [8], 4.77 µM. Besides, the TGI came out at 28.3 µM in assay [1]; 27.5 µM in assay [2]; 11.3 µM in assay [3]; 23.2 µM in assay [4]; 16.3 µM in assay [5]; 26.1 µM in assay [6]. The TGI stood at 26 µM in assay [7] and 18.4 µM in assay [8].
Consider `CC(C)[C@H](CO)Nc1nc(Nc2ccc(C(=O)NCCNS(=O)(=O)c3cccc4c(N(C)C)cccc34)c(Cl)c2)c2ncn(C(C)C)c2n1`, for which the GI50 is greater than 100 µM in assay [1]; 5.18 µM in assay [2]; 2.5 µM in assay [3]; 3.51 µM in assay [4]; 2.71 µM in assay [5]; 1.75 µM in assay [6]. Moreover, the values for the GI50 in assay [7] and in assay [8] were 1.96 µM and 2.57 µM, respectively. Moreover, the TGI was greater than 100 µM in assay [1]; greater than 100 µM in assay [2]; greater than 41.8 µM in assay [3]; greater than 100 µM in assay [4]; greater than 100 µM in assay [5]; greater than 100 µM in assay [6]. Moreover, the TGI in assay [7] was 7.46 µM; in assay [8], greater than 100 µM.
As to `CCOC(=O)c1[nH]c(Br)c(-c2ccc(Br)cc2)c1Br`, the GI50 is 0.407 µM in assay [1]; 5.77 µM in assay [2]; 0.641 µM in assay [5]; 0.145 µM in assay [6]; 8.52 µM in assay [7]; 0.445 µM in assay [8]. The TGI was greater than 100 µM in assay [2]; 1.32 µM and 1.62 µM in assay [3]; 11.4 µM in assay [4]; 5.29 µM and 12.4 µM in assay [5]; 0.763 µM and 0.815 µM in assay [6]; 1.92 µM and 10.6 µM in assay [8].
In the case of `Cc1ccc(-n2c3c(c4c(CN(C)C)c(O)ccc42)CCc2ccccc2C3=O)cc1`, the GI50 in assay [1] is 14.5 µM; in assay [2], 19.7 µM; in assay [3] it was greater than 100 µM; in assay [4], 20.3 µM; in assay [5] it was 15.8 µM; in assay [6], 18.3 µM. Besides, the GI50 in assay [7] was 14.9 µM; in assay [8], 14.4 µM. Besides, the TGI in assay [1] is 34.7 µM; in assay [2] it was 52.9 µM; in assay [3], greater than 100 µM; in assay [4] it was 39.3 µM; in assay [5], 29.5 µM; in assay [6], 35.9 µM. Besides, the TGI in assay [7] was 29.7 µM; in assay [8] it was 27.8 µM.
`O=C1CCCCCCCC/C=C\CC(c2ccco2)O1` (stereo not drawn): the GI50 in assay [1] is 34.4 µM; in assay [2] it was 22.5 µM; in assay [3], 27 µM; in assay [4], 20.8 µM; in assay [5], 32.3 µM; in assay [6], 25.4 µM. Besides, the results for the GI50 in assay [7] and in assay [8] were 28.6 µM and 15.1 µM, respectively. Moreover, the TGI was greater than 100 µM in assay [1]; greater than 100 µM in assay [2]; 99.5 µM in assay [3]; 65.7 µM in assay [4]; 51.6 µM in assay [5]; greater than 100 µM in assay [6]. Also, the TGI in assay [7] is greater than 100 µM; in assay [8], 29.5 µM.
In the case of `CC(C)(O)CS(=O)(=O)Nc1ccc2c(c1)CCN(C(=O)COc1cccnc1)C2`, the GI50 is 1.47 µM in assay [1]; 0.743 µM in assay [3]; greater than 100 µM in assay [4]; greater than 100 µM in assay [5]; greater than 61.6 µM in assay [6]; 2.33 µM in assay [7]. Moreover, the GI50 in assay [8] is 0.0311 µM. Moreover, the TGI in assay [1], in assay [2], in assay [3], in assay [4], in assay [5] and in assay [6] was greater than 100 µM in each case. Further, the TGI in assay [7] and in assay [8] was greater than 100 µM in each case.
As to `C=C(CN1C(=O)[C@H]2CCCN2C(=O)c2ccccc21)c1ccc(C(=O)O)cc1`, the GI50 in assay [1], in assay [2], in assay [3], in assay [4], in assay [5] and in assay [6] was greater than 100 µM throughout. In addition, the GI50 in assay [7] and in assay [8] was greater than 100 µM in each case. The TGI in assay [1], in assay [2], in assay [3], in assay [4], in assay [5] and in assay [6] was greater than 100 µM throughout. The TGI in assay [7] and in assay [8] was greater than 100 µM in each case.
For the molecule `Cc1cc2nc3c4cc(N)ccc4n(CCN(C)C)c3nc2cc1C`, the GI50 in assay [1] is 0.501 µM; in assay [2], 0.914 µM; in assay [3], 0.478 µM; in assay [4], 0.376 µM; in assay [5] it was 0.461 µM; in assay [6], 0.705 µM. Moreover, the GI50 in assay [7] was 2.23 µM; in assay [8], 0.365 µM. Moreover, the TGI was 9.95 µM in assay [1]; 9.66 µM in assay [2]; 6.59 µM in assay [3]; greater than 31.9 µM in assay [4]; 3.27 µM in assay [5]; 4.03 µM in assay [6]. The results for the TGI in assay [7] and in assay [8] were 8.73 µM and 10.9 µM, respectively.
